# Data published in PubChem BioAssay AID602211 (Sanford-Burnham Center for Chemical Genomics, 2012).
# Active and inactive are the calls of the source.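 The calls were made as follows: active = mean IC50 at or below 10 µM; inactive = the rest.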
# System: H9c2 cardiomyocytes, H2O2 protection, ATPLite viability, 2 h
# Assay: H2O2-induced H9c2 cell death suppression – ATPLite luminescence, set 2, dose response (AID 602211);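 also: potency is for protection so actives keep ATP signal up against peroxide killing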
row,SMILES,IC50
1,CC(C)CCN(C(=O)CNC(=O)c1ccco1)C(C(=O)NC1CCCCC1)c1ccco1 (stereo not given),13.4 µM (inactive)
2,O=C(Nc1cccc(Cl)c1)c1nc[nH]c1C(=O)NCCCNC(=O)c1[nH]cnc1C(=O)Nc1cccc(Cl)c1,1.36 µM
3,COc1ccc(-c2cc(NC=O)c3ncc(-c4ccc(C(C)=O)cc4)n3c2)cn1,4.52 µM
4,CC1(C)Cc2c(c(N3CCOCC3)nc3sc4c(NN)ncnc4c23)CS1,> 79 µM (inactive)
5,Cc1nn(C)cc1C(C(=O)NC1CCCCC1)N(C(=O)Cc1cccs1)c1ccc(Cl)cc1 (stereo not given),8.18 µM
6,COc1ccc(Cl)cc1-c1nc(-c2ccc(NC(=O)c3cccs3)cc2)no1,> 79 µM (inactive)
7,Cc1ccccc1C1c2[nH]c3ccccc3c2C[C@H]2C(=O)N(c3ccccc3C(=O)NCCCN3CCOCC3)C(=O)N12 (stereo not given in full),17.2 µM (inactive)
8,Cc1ccc2[nH]c(=O)c(CN(Cc3ccco3)S(=O)(=O)c3c(C)ccc4nsnc34)cc2c1,1.32 µM
9,O=C(Nc1ccc2nc(N3CCOCC3)sc2c1)c1cc2ccccc2o1,4.75 µM
10,COc1cc(/C=C(\C#N)C(=O)Nc2ccccc2)ccc1OCCN1CCOCC1,11.7 µM (inactive)
11,O=C(N/N=C/c1ccccn1)c1cc(-c2cccc3ccccc23)n[nH]1,6.66 µM
12,C[C@H]1Cn2cnc(C(=O)N[C@@H](Cc3c[nH]c4ccccc34)C(=O)OC(C)(C)C)c2C(=O)N1,24.1 µM (inactive)
13,COc1cc(C(=O)N/N=C/c2ccc(OC(=O)c3ccccc3Cl)cc2)ccc1O,> 79 µM (inactive)
14,CC(=O)Nc1cccc(NC(=O)c2cc(-c3cccnc3)nc3ccc(Br)cc23)c1,1.3 µM
15,CC(OC(=O)c1cc(-c2cccnc2)nc2ccccc12)C(=O)Nc1ccc2ccccc2c1 (stereo not given),5.97 µM
16,O=C(CN1CCN(c2ccccn2)CC1)Nc1ccc([N+](=O)[O-])cc1C(=O)Nc1ccccc1F,7.08 µM
17,Cc1nn(-c2ccccc2)c(N2CCCC2)c1/C=N/NC(=O)c1cc(-c2ccccn2)nc2ccccc12,7.63 µM
18,COc1ccc(N(CC(=O)N/N=C/c2cccs2)S(=O)(=O)c2ccc(OC)c(OC)c2)cc1,10.3 µM (inactive)
19,COc1cc(-c2cc(NC(C)=O)c3ncc(-c4ccccc4)n3c2)cc(OC)c1OC,6.75 µM
20,Cc1[nH]c2ccccc2c1/C=N/NC(=O)c1cc(-c2ccccc2)n[nH]1,2.89 µM
21,Nc1nonc1-n1nnc(C(=O)N/N=C/c2ccccn2)c1CNc1ccccc1,16.3 µM (inactive)
22,O=S(=O)(c1ccccc1)N1CCN(c2nc(-c3cccnc3)nc3ccccc23)CC1,4.54 µM

row,SMILES,IC50
1,CC(=O)c1cccc(NC(=O)Nc2ccc3c(c2)N(C)C(=O)CS3)c1,3.53 µM
2,CC(C)(C)OC(=O)C[C@H]1C/C=C\C[C@H](CC(=O)N[C@H](CO)Cc2ccccc2)C(=O)N[C@H](Cc2ccccc2)COC1=O,6.31 µM
3,O=C(N/N=C/c1ccc2c(c1)OCO2)c1ccc(NC(=O)c2ccccc2Cl)cc1,8.05 µM
4,Cc1nc(N2CCN(c3ccccn3)CC2)c2c(C)c(C(=O)Nc3ccc(F)cc3)sc2n1,4.36 µM
5,COc1nc(N/N=C/c2cc3c(cc2Br)OCO3)nc(N2CCOCC2)n1,11.9 µM (inactive)
6,CC(=O)Nc1ccc(S(=O)(=O)N(Cc2cccnc2)Cc2cc3ccccc3[nH]c2=O)cc1,1.51 µM
7,COc1cc(/C=N/NC(=O)c2cccnc2)ccc1OS(=O)(=O)c1cc(C)ccc1C,> 79 µM (inactive)
8,COc1ccc(-c2ccc3c(c2)S(=O)(=O)c2cccc(C(=O)NC[C@@H]4CCCO4)c2C3=O)cc1OC,4.98 µM
9,COCCn1ccc2c(OCC(=O)Nc3ccccc3OC)cccc2c1=O,> 79 µM (inactive)
10,Cc1cc(C)c(C)c(S(=O)(=O)N2CCN(C(=O)c3cc(=O)[nH]c4ccccc34)CC2)c1C,0.998 µM
11,C[C@@H]1ON(C)[C@H]2C[C@H]3c4[nH]c5ccc(-c6ccc7c(c6)OCO7)cc5c4CCN3C[C@@H]12,> 79 µM (inactive)
12,CCOC(=O)c1ccc(-c2ccc(/C=C(\C#N)C(=O)NCC3CCCO3)o2)cc1 (stereo not given),> 79 µM (inactive)
13,COc1cc(C(=O)Nc2cccc(-c3nnc(-c4ccco4)o3)c2)ccc1OC(C)=O,> 79 µM (inactive)
14,COc1ccc(CCNC(=O)C(=O)NCC2CCCN2S(=O)(=O)c2ccccc2)cc1OC (stereo not given),6.18 µM
15,Cc1c(C(=O)NCC2COc3ccccc3O2)oc2ccc(S(=O)(=O)N3CCOCC3)cc12 (stereo not given),> 79 µM (inactive)
16,COc1ccc(/C=N/NC(=O)c2ccc(COc3cccc4cccnc34)cc2)cc1OC,3.89 µM
17,COC(=O)c1cc(C(=O)OCC(=O)N2c3ccccc3NC(=O)C2(C)C)cc([N+](=O)[O-])c1,6.28 µM
18,O=c1c2ccccc2nc(CSc2ncnc3nc[nH]c23)n1-c1ccc(Cl)c(Cl)c1,4.13 µM
19,COc1cc(NC(=O)c2c(OC)cccc2OC)ccc1NC(=O)c1cc2ccccc2o1,15.1 µM (inactive)
20,COc1ccc(C(=O)Nc2cccc(/C(C)=N/NC(=O)c3ccc([N+](=O)[O-])c(C)c3)c2)cc1OC,4.93 µM
21,COc1ccc(-c2nnc(-c3cc(OC)c(OC)c(OC)c3)o2)cc1OC,43.9 µM (inactive)
22,NC(=O)COc1ccc2oc(=O)cc(-c3cc4ccccc4o3)c2c1,9.93 µM

row,SMILES,IC50
1,CCOC(=O)C1CCN(C(c2cc3c(C)ccc(C)c3[nH]c2=O)c2nnnn2C2CCCCC2)CC1 (stereo not given),> 79 µM (inactive)
2,COc1cc(C(=O)Nc2ccc(NC(=O)c3ccco3)nc2)cc(OC)c1OC,25.7 µM (inactive)
3,Cc1ccc(-c2nnc(NCc3nc4ccccc4[nH]3)c3ccccc23)cc1S(=O)(=O)N1CCOCC1,4.11 µM
4,CCCC(=O)Nc1nc2ccc(NC(=O)c3ccc(Br)o3)cc2s1,15.2 µM (inactive)
5,COc1cc(NC(=O)c2cc3c(C)nc4ccccc4c3o2)cc(OC)c1OC,3.36 µM
6,C#CCOc1nc(Nc2cccc([N+](=O)[O-])c2)nc(OCC#C)n1,> 79 µM (inactive)
7,NC(=O)c1nsc(C(=O)N(c2ccccc2)C(C(=O)NC2CCCC2)c2ccc3ncccc3c2)c1N (stereo not given),3.35 µM
8,CCOC(=O)C1CCN(c2cc3c(cc2NC(=O)c2ccccc2)n(C)c(=O)n3C)CC1,5.18 µM
9,O=C(c1ccccc1)c1ccc2nc(N3CCN(C(=O)c4ccco4)CC3)c3nncn3c2c1,9.31 µM
10,C[C@@H](NC(=O)c1nc[nH]c1C(=O)NCC(=O)OCc1ccccc1)c1ccccc1,51.6 µM (inactive)
11,CC(=O)c1ccc(-c2[nH]c3ccccc3c2CCN2C(=O)c3ccccc3C2=O)cc1,9.73 µM
12,COc1cc(C(=O)N/N=C/c2ccc(OC(=O)c3cccc(C)c3)c(OC)c2)ccc1O,3.16 µM
13,Cc1ccccc1C(C(=O)NCc1ccccc1)N(Cc1ccco1)C(=O)c1ccccn1 (stereo not given),> 79 µM (inactive)
14,CC1Cc2ccccc2N1C(=O)c1cc2c(=O)n3ccccc3nc2n1C (stereo not given),> 79 µM (inactive)
15,CCCNC(=O)c1c(N)n(-c2cccc(OC)c2)c2nc3ccccc3nc12,> 79 µM (inactive)
16,CCOc1cc(-c2cc(-c3ccc(N)cc3)nc(N)c2C#N)ccc1O,5.99 µM
17,CC(=O)Nc1cc(-c2ccccc2)cn2c(-c3cccc(C(C)=O)c3)cnc12,8.67 µM
18,COc1ccc(OC)c(Nc2nc(N)c([N+](=O)[O-])c(N3CCOCC3)n2)c1,11.8 µM (inactive)
19,COc1cc(-c2cc(C(=O)OCC(=O)NC3CC3)c3ccccc3n2)cc(OC)c1OC,3.98 µM
20,Cc1nc(NC(=O)c2cc3c(C)nn(-c4ccccc4)c3s2)sc1C(=O)Nc1ccccc1,2.7 µM
21,COc1ccc(-n2nc(C(=O)NCC(=O)Nc3cc(OC)c(OC)c(OC)c3)c3ccccc3c2=O)cc1Cl,3.02 µM
